Data reported in ChEMBL document CHEMBL1201862, “PubChem BioAssay data set” (2004).
The source made the active and inactive calls.

Key:
[1] = Luminescence Cell-Based Dose Retest to Confirm Inhibitors of Cancer Stem Cells. [Related pubchem assays (depositor defined):AID2717, AID2721]; assay type: functional; settings: Homo sapiens
[2] = target: T1, Ubiquitin-conjugating enzyme E2 N (Homo sapiens, UniProt P61088); assay type: functional;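 note: Dose-response confirmation in a TR-FRET assay detecting UBC13-driven polyubiquitin chain formation, inhibition measured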
T1 sequence (P61088 whole entry): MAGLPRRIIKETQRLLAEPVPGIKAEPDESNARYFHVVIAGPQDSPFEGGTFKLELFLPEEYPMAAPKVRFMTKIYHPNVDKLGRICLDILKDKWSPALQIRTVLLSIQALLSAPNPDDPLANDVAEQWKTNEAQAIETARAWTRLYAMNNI

[3] = target: T2, Calpain-2 catalytic subunit (Sus scrofa, UniProt P43367); assay: m-calpain protease blockers, concentration series – biochemical, fluorogenic peptide substrate, dose response (AID 1420); assay type: functional
T2 sequence (P43367 whole entry): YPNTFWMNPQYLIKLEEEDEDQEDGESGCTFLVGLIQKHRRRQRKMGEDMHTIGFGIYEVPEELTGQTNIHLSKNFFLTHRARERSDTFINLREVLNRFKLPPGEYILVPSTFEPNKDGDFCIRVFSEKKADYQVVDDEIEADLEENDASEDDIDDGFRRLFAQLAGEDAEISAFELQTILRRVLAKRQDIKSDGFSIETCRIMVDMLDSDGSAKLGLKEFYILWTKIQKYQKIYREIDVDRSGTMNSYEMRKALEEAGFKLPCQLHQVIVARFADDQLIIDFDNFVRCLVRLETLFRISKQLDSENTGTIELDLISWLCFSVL

[4] = luciferase reporter signal suppression in cells – H4 neuroglioma cells, luminescence, dose response (AID 1990); assay type: functional, cell-based
[5] = Luminescence Cell-Based Dose Response HTS to Identify Inhibitors of 5'UTR Stem-Loop Driven Prion Protein mRNA Translation in H4 Neuroglioblastoma Cells. [Related pubchem assays: 1827 (Project Summary), 1813 (Primary HTS)]; assay type: functional
[6] = alpha-synuclein stem-loop luciferase translation blockers – H4 neuroglioma cells, luminescence, confirmation (AID 1988); assay type: functional, cell-based
[7] = target: FAD-linked sulfhydryl oxidase ALR (Homo sapiens, UniProt P55789); assay: ALR-catalysed DTT oxidation blockers – biochemical, H2O2 detection, luminescence, cherry-pick, dose response (AID 493248)
Sequence of FAD-linked sulfhydryl oxidase ALR (P55789 whole entry): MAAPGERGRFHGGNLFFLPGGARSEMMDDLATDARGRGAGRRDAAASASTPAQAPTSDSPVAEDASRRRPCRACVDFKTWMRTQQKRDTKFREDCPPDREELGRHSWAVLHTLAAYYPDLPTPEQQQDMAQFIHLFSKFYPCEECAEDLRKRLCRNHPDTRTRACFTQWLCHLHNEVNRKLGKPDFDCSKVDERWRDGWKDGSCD

Leucine aminopeptidase = target: T3, Leucine aminopeptidase (Plasmodium falciparum 3D7, UniProt Q8IL11); assay: P. falciparum M17LAP inhibitors, primary screen, biochemical, fluorogenic H-Leu-NHMec substrate, 1536-well (AID 1619); assay type: functional
T3 sequence (Q8IL11 whole entry): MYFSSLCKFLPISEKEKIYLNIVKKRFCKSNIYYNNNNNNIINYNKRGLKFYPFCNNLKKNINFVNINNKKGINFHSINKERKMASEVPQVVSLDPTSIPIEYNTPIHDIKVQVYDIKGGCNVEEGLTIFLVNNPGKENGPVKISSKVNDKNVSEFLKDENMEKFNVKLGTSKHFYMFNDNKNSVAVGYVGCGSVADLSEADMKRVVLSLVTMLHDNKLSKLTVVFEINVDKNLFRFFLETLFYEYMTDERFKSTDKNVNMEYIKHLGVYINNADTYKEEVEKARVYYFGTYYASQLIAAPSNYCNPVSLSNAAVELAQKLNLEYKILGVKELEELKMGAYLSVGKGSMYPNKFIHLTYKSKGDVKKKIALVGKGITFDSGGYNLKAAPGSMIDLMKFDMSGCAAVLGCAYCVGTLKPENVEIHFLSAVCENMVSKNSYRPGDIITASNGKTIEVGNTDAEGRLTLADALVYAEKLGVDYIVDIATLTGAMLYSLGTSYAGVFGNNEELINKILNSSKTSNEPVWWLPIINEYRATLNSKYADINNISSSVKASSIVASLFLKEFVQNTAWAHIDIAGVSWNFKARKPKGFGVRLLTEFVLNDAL

[8] = blockers of HIV-1 envelope-mediated cell-cell fusion – cherry-pick, dose response (AID 652057); assay type: functional, cell-based
[9] = HIV-1 AD8 envelope cell-cell fusion blockers – cherry-pick, dose response (AID 652062); assay type: functional, cell-based;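 note: luciferase signal from cell-cell fusion driven by HIV-1 clade B AD8 Env; potency is for inhibitors of fusion seen as a drop in luminescence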
[10] = target: T4, RNA-binding protein pos-1 (Caenorhabditis elegans, UniProt G5EF15); assay: disruptors of C. elegans POS-1 RNA interaction – biochemical, fluorescence polarization, dose response (AID 1964);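 note: purified POS-1 fused to maltose binding protein made in E. coli; potency of compounds blocking POS-1 binding to fluorescent RNA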
T4 sequence (G5EF15 whole entry): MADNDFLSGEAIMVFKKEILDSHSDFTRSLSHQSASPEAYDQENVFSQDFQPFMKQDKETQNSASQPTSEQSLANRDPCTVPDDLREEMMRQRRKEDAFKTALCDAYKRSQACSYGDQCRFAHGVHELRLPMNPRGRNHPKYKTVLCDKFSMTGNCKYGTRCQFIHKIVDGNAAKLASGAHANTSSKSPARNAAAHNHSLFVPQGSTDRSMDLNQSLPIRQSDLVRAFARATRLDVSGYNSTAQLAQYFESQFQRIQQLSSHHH

INS1 = assay: INS-1E survival protection against cytokine death – cell-based, luminescence, retest, dose response (AID 449756); assay type: functional; settings: Rattus norvegicus;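 note: cell death triggered by IL-1 beta plus TNF-alpha plus IFN-gamma mixture; protective hits raise ATP signal compared with cytokine alone wells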
[11] = target: T5, High affinity choline transporter 1 (Homo sapiens, UniProt Q9GZV3); assay: human choline transporter blockers, potency – cell-based, 5-point CRC, membrane potential dye, dose response (AID 504840); assay type: functional
T5 sequence (Q9GZV3 whole entry): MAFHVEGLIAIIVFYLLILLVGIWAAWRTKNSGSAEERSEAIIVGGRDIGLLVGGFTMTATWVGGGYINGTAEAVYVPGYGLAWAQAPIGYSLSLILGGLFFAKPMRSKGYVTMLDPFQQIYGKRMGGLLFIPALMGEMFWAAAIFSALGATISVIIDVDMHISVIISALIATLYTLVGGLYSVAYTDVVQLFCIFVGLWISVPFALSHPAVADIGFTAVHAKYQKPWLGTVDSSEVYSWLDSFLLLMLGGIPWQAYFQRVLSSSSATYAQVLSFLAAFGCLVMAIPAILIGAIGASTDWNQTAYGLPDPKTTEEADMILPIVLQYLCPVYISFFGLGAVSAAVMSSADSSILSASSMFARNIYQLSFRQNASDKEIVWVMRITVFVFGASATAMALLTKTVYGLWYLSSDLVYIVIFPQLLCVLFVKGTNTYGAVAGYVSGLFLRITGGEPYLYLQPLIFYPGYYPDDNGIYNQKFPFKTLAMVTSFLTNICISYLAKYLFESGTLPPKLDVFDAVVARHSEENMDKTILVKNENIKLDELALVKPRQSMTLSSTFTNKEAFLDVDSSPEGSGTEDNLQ

Cytochrome P450 2D6 = Cytochrome P450 2D6 (Homo sapiens, UniProt P10635);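 note: CYP2D6 member of a cytochrome P450 panel assay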
Sequence of Cytochrome P450 2D6 (P10635 whole entry, the tested form may be a part): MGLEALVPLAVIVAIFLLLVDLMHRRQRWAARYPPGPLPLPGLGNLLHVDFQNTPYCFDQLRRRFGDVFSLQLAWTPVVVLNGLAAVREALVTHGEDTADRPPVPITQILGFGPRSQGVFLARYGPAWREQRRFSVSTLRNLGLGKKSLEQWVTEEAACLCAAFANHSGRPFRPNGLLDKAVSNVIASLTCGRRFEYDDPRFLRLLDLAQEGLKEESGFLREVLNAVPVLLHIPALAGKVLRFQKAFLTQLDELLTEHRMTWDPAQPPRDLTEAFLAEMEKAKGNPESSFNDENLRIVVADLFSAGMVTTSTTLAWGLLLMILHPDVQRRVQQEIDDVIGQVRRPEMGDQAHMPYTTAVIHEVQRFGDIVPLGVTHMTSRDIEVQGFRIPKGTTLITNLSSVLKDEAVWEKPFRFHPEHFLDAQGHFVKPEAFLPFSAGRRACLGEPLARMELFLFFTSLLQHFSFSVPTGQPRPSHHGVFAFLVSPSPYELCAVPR

[12] = target: T6, Carboxy-terminal domain RNA polymerase II polypeptide A small phosphatase 1 (Homo sapiens, UniProt Q9GZU7); assay: CTDSP1 inhibitors, concentration-response, biochemical, absorbance readout, ultra-high-throughput screen actives (AID 540297); assay type: functional
T6 sequence (Q9GZU7 whole entry): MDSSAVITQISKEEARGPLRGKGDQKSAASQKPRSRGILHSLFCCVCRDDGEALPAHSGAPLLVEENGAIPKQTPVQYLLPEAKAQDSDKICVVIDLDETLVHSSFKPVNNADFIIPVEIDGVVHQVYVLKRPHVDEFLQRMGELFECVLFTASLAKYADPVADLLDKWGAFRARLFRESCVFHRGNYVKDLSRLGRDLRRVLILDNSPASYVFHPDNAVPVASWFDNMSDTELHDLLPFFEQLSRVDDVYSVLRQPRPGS

Nonstructural protein 1 = Nonstructural protein 1 (Influenza A virus, UniProt Q194T2); assay type: functional, Influenza A virus (A/California/07/2009(H1N1))
Sequence of Nonstructural protein 1 (Q194T2 whole entry): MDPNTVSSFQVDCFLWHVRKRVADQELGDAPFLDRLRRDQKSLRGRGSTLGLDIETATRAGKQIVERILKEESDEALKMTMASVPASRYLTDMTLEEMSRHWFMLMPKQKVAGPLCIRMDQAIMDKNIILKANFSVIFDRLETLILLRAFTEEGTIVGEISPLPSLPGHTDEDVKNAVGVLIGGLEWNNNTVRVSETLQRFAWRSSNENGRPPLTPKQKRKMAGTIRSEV

[13] = target: T7, Rac GTPase-activating protein 1 (Homo sapiens, UniProt Q9H0H5); assay: blockers of MgcRacGAP-driven Rac1 GTP hydrolysis – biochemical, ADP Hunter fluorescence, primary and confirmatory, confirmation (AID 624330); assay type: functional
T7 sequence (Q9H0H5 whole entry): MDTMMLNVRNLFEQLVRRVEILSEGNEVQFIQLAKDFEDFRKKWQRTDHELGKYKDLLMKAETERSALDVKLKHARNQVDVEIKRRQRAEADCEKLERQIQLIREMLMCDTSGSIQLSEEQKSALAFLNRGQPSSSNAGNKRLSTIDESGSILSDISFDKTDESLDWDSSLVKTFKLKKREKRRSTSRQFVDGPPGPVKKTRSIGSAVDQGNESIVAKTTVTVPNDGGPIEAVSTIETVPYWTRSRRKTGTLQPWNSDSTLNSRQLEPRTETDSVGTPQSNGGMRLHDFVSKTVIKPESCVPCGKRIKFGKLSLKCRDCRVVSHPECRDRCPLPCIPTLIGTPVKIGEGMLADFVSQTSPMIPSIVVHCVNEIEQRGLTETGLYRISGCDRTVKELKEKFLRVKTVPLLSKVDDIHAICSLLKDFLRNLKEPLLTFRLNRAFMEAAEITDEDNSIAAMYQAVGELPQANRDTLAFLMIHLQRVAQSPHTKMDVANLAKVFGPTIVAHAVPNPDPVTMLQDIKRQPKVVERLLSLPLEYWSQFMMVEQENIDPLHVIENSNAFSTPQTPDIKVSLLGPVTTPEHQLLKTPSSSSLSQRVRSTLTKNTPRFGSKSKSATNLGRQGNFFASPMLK

[14] = HEK-293T viability loss after treatment – luminescence, T-cell screen hits, cytotoxicity control for TCR NF-kB inhibitor project, dose response (AID 489026); assay type: functional, cell-based;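 note: cells exposed to compound about 14 hours before the viability readout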
[15] = P. falciparum Dd2 growth inhibitors, dose response, SYBR Green, cherry-picked samples (AID 1159567); assay type: functional, cell-based
[16] = growth inhibition of PfATP4-mutant resistant parasites – NITD609-resistant line, SYBR Green, dry powder, dose response (AID 1159571); assay type: functional, cell-based;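 note: parasites synchronized at ring stage by sorbitol before testing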
[17] = Dd2 malaria parasite growth inhibition potency – SYBR Green, dry powder samples, dose response (AID 1159566); assay type: functional, cell-based;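 note: potency for growth inhibition with lower SYBR green DNA signal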
[18] = growth inhibition of yeast DHODH-expressing 3D7 parasites – SYBR Green, dry powder samples, dose response (AID 1159570); assay type: functional, cell-based;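 note: parasite growth measured after 72 hours of compound exposure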

COc1ccc(-c2sc3cc4c(cc3c2C#CC2(N)CCCCC2)OCO4)cc1
AC50 [1]: 1.48 µM (active) | IC50 [2]: > 20 µM (inactive)

O=c1c2ccccc2nc(SCc2cn3ccsc3n2)n1-c1ccccc1F
IC50 [3]: < 0.4 µM (not active)

Cc1cccc(NC(S)=NCCSc2ccc(Cl)cc2)c1
EC50 [4]: > 120 µM (not active) | EC50 [5]: 62.6 µM (active) | IC50 [3]: 3.87 µM (not active) | EC50 [6]: 84.8 µM (active)

Cc1ccn2cc(-c3cccc(NC(=O)CCC(=O)O)c3)nc2c1
AC50 [7]: 0.618 µM (active)

COc1cc(O)c(C(CCN2CCCCC2)c2ccc(N(C)C)cc2)c(OC)c1 (stereo unspecified)
AC50 [7]: 1.83 µM (active)

O=C(c1ccc2c(c1)OCO2)N1CCN=C1SCc1cccnc1
AC50 [7]: 0.076 µM (active)

O=C(O)C12CC3CC(C1)CC(n1ncc(NCc4ccccc4)c(Cl)c1=O)(C3)C2
IC50 (Leucine aminopeptidase): 90 µM (active)

CCOc1ccc(NC(=O)C2CC=CCC2C(=O)O)cc1 (stereo unspecified)
IC50 (Leucine aminopeptidase): 10.5 µM (active)

CC(=O)c1c(C)[nH]c(C(=O)OCC(=O)Nc2ccc(Cl)c(S(=O)(=O)N(C)C)c2)c1C
AC50 [8]: 2.76 µM (active) | AC50 [9]: 40.4 µM (active)

CC(=O)Nc1ccc(S(=O)(=O)NNC(=O)C(=O)NNc2ccccn2)cc1
EC50 [10]: > 300 µM (not active) | IC50 [2]: > 20 µM (inactive)

Cc1ccccc1OCCCCn1cnc2ccccc21
AC50 [9]: 4.16 µM (active) | AC50 (INS1): 6.87 µM (active)

O=[N+]([O-])c1ccc2[nH]c3c(c2c1)CCCC3
AC50 [7]: 15.6 µM (active)

COc1ccc(/C=C2\N=C(c3ccccc3)N(c3ccc(C(=O)O)cc3)C2=O)cc1OC
IC50 [11]: 12.6 µM (active)

Cc1nc(SCC(=O)NC(=O)NC2CCCCC2)nc(C)c1C
IC50 [11]: 12.7 µM (active)

CC(C)C(=O)N1CCN(c2ccccc2N)CC1
IC50 [3]: 0.734 µM (not active)

O=C(COC(=O)c1ccccc1Nc1cccc(C(F)(F)F)c1)NCc1ccco1
AC50 (Cytochrome P450 2D6): 10 µM (inconclusive) | IC50 [12]: 6.38 µM (active)

CCOc1ccc(NC(=O)CSc2nnc(CCNC(=O)c3ccc(OC)cc3)n2CC)cc1
IC50 (Leucine aminopeptidase): 8.71 µM (active)

CCCc1cc(C(=O)NN=C(S)NCc2ccccc2)cs1
IC50 [11]: 12.9 µM (active)

CCOc1ccc(-c2nc(C#N)c(N3CCN(Cc4ccccc4)CC3)o2)cc1
IC50 (Nonstructural protein 1): > 100 µM (active)

Cc1oc(C(C)(C)C)cc1C(=O)NC(Cc1ccccc1)C(=O)O (stereo unspecified)
IC50 (Leucine aminopeptidase): 12.7 µM (active)

COc1ccc(C(=O)N2CCN(c3ncnc4c(-c5ccccc5)nsc34)CC2)cc1
IC50 [3]: 4.3 µM (not active)

Cc1cc(C)c(NC(=O)CN2C(=O)NC3(CCCCC3)C2=O)c(C)c1
IC50 (Leucine aminopeptidase): 19.5 µM (active)

C/C(=N\NC(=N)N)c1ccccc1
IC50 [11]: 13.5 µM (active)

COc1ccc(N=Nc2cc(OC)c(N)cc2OC)cc1
IC50 (Nonstructural protein 1): 35.3 µM (active) | IC50 [13]: 35.2 µM (active)

CCOc1ccccc1C(O)C1=CC(=O)c2ccccc2C1=O (stereo unspecified)
IC50 [12]: 4.16 µM (active)

CC(=O)N(C)c1ccc(OCC(O)CN(c2ccccc2C)S(=O)(=O)c2ccc(C)cc2)cc1 (stereo unspecified)
IC50 [11]: 11.8 µM (active)

C[C@H]1CN([C@@H](C)CO)C(=O)c2cc(NC(=O)Nc3ccc4c(c3)OCO4)ccc2O[C@H]1CN(C)S(=O)(=O)c1ccc(F)cc1
AC50 [8]: 15.2 µM (active) | AC50 [9]: 39 µM (active)

Cc1ccnc2c1ccc1cccnc12
IC50 (Nonstructural protein 1): 0.736 µM (active) | IC50 [14]: > 80 µM (inactive)

Cn1c(=O)c2c(nc(N/N=C/c3ccncc3)n2Cc2ccccc2)n(C)c1=O
AC50 [7]: 0.628 µM (active)

O=C(Cn1cncn1)N/N=C/c1cc([N+](=O)[O-])ccc1O
IC50 (Nonstructural protein 1): 3.9 µM (active)

Cc1cc(/C=N/NC(=O)C(=O)NCc2ccccn2)c(C)n1-c1cccc(Br)c1
IC50 [3]: < 0.4 µM (not active)

CC(C)NC(=O)Nc1ccc2c(c1)C(=O)N(C)[C@H]1CC[C@H](CC(=O)Nc3ccccc3)O[C@H]1CO2
AC50 [15]: 1.25 µM (active) | AC50 [16]: 1.23 µM (active) | AC50 [17]: 1.26 µM (active) | AC50 [18]: 1.23 µM (active)
